Laboratory results from ChEMBL document CHEMBL4813965, “Discovery of CYR715: A novel carboxylic acid-containing soluble guanylate cyclase stimulator” (Bioorg Med Chem Lett, 2021).
In brackets after ≈: the same amount, converted by molar mass.

How the values were obtained:
[1] = Drug metabolism in rat assessed as formation of reactive and migrated acyl glucuronides metabolites; assay type: ADME
[2] = AUC in rat at 1 mg/kg, po; assay type: ADME, organism-based; parameters: dose 1 mg/kg; details: in vivo
[3] = Apparent permeability across apical to basolateral side of dog MDR1-MDCK2 cells; assay type: ADME, cell-based, Canis lupus familiaris, MDCK-II; details: MDCK-MDR1
[4] = Solubility of the compound at pH 7.0; assay type: physicochemical; details: buffer
[5] = Oral bioavailability in rat at 1 mg/kg; assay type: ADME, organism-based; details: in vivo

For `C[C@H]1CCCN(c2nc(-c3cc(-c4ccon4)n(Cc4ccccc4F)n3)ncc2F)[C@H]1C(=O)O`, the Drug metabolism [1] was “Metabolite_Detected”.

For `O=C(O)[C@H]1CCCCN1c1nc(-c2cc(-c3ccon3)n(Cc3ccccc3F)n2)ncc1F`, the Drug metabolism [1] was “Metabolite_Detected”.

With `O=C(O)C1CCN(c2nc(-c3cc(-c4ccon4)n(Cc4ccccc4F)n3)ncc2F)CC1` the Drug metabolism [1] was “Metabolite_Detected”.

For `O=C(O)C1CCCN(c2nc(-c3cc(-c4ccon4)n(Cc4ccccc4F)n3)ncc2F)C1` (racemic), the Drug metabolism [1] was “Metabolite_Detected”.

Compound `Oc1nc(-c2cc(-c3ccon3)n(Cc3ccccc3F)n2)ncc1F` has an AUC [2] of 25000 ng·h/mL, a Papp A→B [3] of 24 ×10⁻⁶ cm/s and a solubility [4] of 3 µg/mL (≈ 8.44 µM).

For `O=C(O)[C@@H]1CCCCN1c1nc(-c2cc(-c3ccon3)n(Cc3ccccc3F)n2)ncc1F`, the Drug metabolism [1] was “Metabolite_Detected”.

With `C[C@@H]1CCCN(c2nc(-c3cc(-c4ccon4)n(Cc4ccccc4F)n3)ncc2F)[C@@H]1C(=O)O` the Drug metabolism [1] was “Metabolite_Detected”, the AUC [2] was 3700 ng·h/mL and the Papp A→B [3] was 40 ×10⁻⁶ cm/s. For the same compound, the solubility [4] was 21 µg/mL (≈ 43.7 µM) and the bioavailability [5] was > 100%.
